ChEMBL document CHEMBL1144319, “Design, synthesis, and evaluation of oxazole transthyretin amyloidogenesis inhibitors” (Bioorg Med Chem Lett, 2005)

Biological target: Transthyretin (Homo sapiens) (UniProt P02766)
Assay: Binding selectivity to transthyretin in human blood plasma after 24 hincubation with 10.8 uM inhibitor
Format: cell-free

Compound	Molar equivalence bound
O=C(O)c1nc(-c2cc(Cl)cc(Cl)c2)oc1C(F)(F)F	0.68
CCc1oc(-c2cc(Cl)cc(Cl)c2)nc1C(=O)O	0.49
